According to patent US8642516B2, “Chemically-defined arrays for screening cell-substrate interactions” (Wisconsin Alumni Research Foundation, priority 2012, dated 2014):

Tests used:
[1] = system: HUVEC; test: HUVEC attachment to SAM spots presenting mutant ligand (Example 8); format: cell-based, human
Method: Specifically, SAM array spots presenting mixed ligands were prepared as described above. SAM arrays presenting varied ligand densities of covalently immobilized VEGF receptor-binding peptide ([…], here referred to as “VR-BP”; SEQ ID NO:17) and varied ligand densities of the fibronectin-derived cell adhesion peptide (GRGDSP, SEQ ID NO:18) were used to probe for changes in HUVEC attachment, proliferation and tubulogenesis. Control over individual ligand density was achieved by mixing scrambled VR-BP and mutant GRGESP (SEQ ID NO:19) with functional VR-BP or GRGDSP (SEQ ID NO:18) peptides, respectively. Therefore, in a typical SAM array, SAMs were locally formed within spots using an alkanethiolate mixture of 94% HS—C11-EG3-OH and 6% HS—C11-EG6-COOH to create substrates with a total of 6% carboxylate groups for peptide conjugation. Next, to create a spot presenting 5% GRGDSP (SEQ ID NO:18) and 1% VR-BP, a 300 μM peptide solution with 250 μM GRGDSP (SEQ ID NO:18) and 50 μM VR-BP was used during peptide conjugation. […] As mentioned previously, ligand concentrations were measured using UV/Vis since all peptides either contained residues that absorbed strongly at 280 nm, or were engineered to contain tryptophan residues in the poly-glycine tail. […]

[2] = system: hMSC; test: hMSC surface coverage over time on SAM spots presenting GRGDSP with BR-BP and HPG-BP; format: cell-based, human; settings: low GRGDSP density SAM spots, cultured 20 days
Excerpt: In this SAM array approach, each spot was designed to contain the same total molar density (mol/cm^2) of peptide from spot to spot. Therefore, control over individual peptide density was achieved by mixing scrambled BR-BP and HPG-BP and mutant GRGESP (SEQ ID NO:19) peptides with functional BR-BP, HPG-BP or GRGDSP (SEQ ID NO:18) peptides, respectively. Therefore, in a typical SAM array, SAMs were locally formed within spots using an alkanethiolate mixture of 95% HS—C11-EG3-OH and 5% HS—C11-EG6-COOH to create substrates with a total of 5% carboxylate groups for peptide conjugation. Here, “X %” refers to the mole percent of alkanethiolate present during SAM formation and subsequently the approximate amount of an alkanethiolate present on the surface after SAM formation. To regulate the density of active peptide present in each spot, mutant and scramble versions of peptides were included during peptide conjugation. […] As mentioned previously, peptide concentrations were easily measured using UV/Vis since all peptides either contained residues that absorbed strongly at 280 nm, or were engineered to contain tryptophan residues in the poly-glycine tail. […]

[3] = system: HUVEC; test: HUVEC proliferation (Click-it EdU) in response to soluble morphogens on SAM arrays; format: cell-based, human; settings: soluble, 10 ng/ml, 24 hours, m199 with 2% FBS, highest ligand density spots
Method: Specifically, SAM array spots presenting mixed ligands were prepared as described above. SAM arrays presenting varied ligand densities of covalently immobilized VEGF receptor-binding peptide ([sequence], here referred to as “VR-BP”; SEQ ID NO:17) and varied ligand densities of the fibronectin-derived cell adhesion peptide (GRGDSP, SEQ ID NO:18) were used to probe for changes in HUVEC attachment, proliferation and tubulogenesis. Control over individual ligand density was achieved by mixing scrambled VR-BP and mutant GRGESP (SEQ ID NO:19) with functional VR-BP or GRGDSP (SEQ ID NO:18) peptides, respectively. Therefore, in a typical SAM array, SAMs were locally formed within spots using an alkanethiolate mixture of 94% HS—C11-EG3-OH and 6% HS—C11-EG6-COOH to create substrates with a total of 6% carboxylate groups for peptide conjugation. Next, to create a spot presenting 5% GRGDSP (SEQ ID NO:18) and 1% VR-BP, a 300 μM peptide solution with 250 μM GRGDSP (SEQ ID NO:18) and 50 μM VR-BP was used during peptide conjugation. Likewise, to create a spot presenting 2.5% GRGDSP (SEQ ID NO:18) and 0.1% VR-BP, a 300 μM peptide solution with 125 μM GRGDSP (SEQ ID NO:18), 125 μM GRGESP (SEQ ID NO:19), 5 μM VR-BP and 45 μM scrambled peptide was used during peptide conjugation. In this manner, the amount of active ligand could be varied between spots while holding the total ligand content constant.
Passage 2 HUVECs were expanded at low cell density (less than 70% confluence) on tissue culture polystyrene to no more than 14 population doublings. During HUVEC expansion, cells were cultured in medium 199 (m199, Mediatech, Manassas, Va.) containing 1% penicillin/streptomycin (Hyclone, Logan, Utah) and supplemented with Clonetics EGM-2 BullitKit (Lonza Walkersville, Inc., Walkersville, Md.) containing Hydrocortisone, hFGF-B, VEGF, R3-IGF-1, Ascorbic Acid, Heparin, FBS, hEGF, GA-1000 growth supplements. […]

[4] = system: HUVEC; test: HUVEC attachment to SAM spots presenting immobilized VR-BP; format: cell-based, human; settings: immobilized 1% VR-BP vs scrambled peptide, highest GRGDSP densities, 1 hour
Method: (§1) Passage 2 HUVECs were expanded at low cell density (less than 70% confluence) on tissue culture polystyrene to no more than 14 population doublings. During HUVEC expansion, cells were cultured in medium 199 (m199, Mediatech, Manassas, Va.) containing 1% penicillin/streptomycin (Hyclone, Logan, Utah) and supplemented with Clonetics EGM-2 BullitKit (Lonza Walkersville, Inc., Walkersville, Md.) containing Hydrocortisone, hFGF-B, VEGF, R3-IGF-1, Ascorbic Acid, Heparin, FBS, hEGF, GA-1000 growth supplements. NIH 3T3 cells were expanded in Dulbecco's modified eagles medium (DMEM, Mediatech, Manassas, Va.) containing 1% penicillin/streptomycin and supplemented with 5% cosmic calf serum (Hyclone, Logan, Utah). Before seeding on SAM arrays, HUVECs in cell culture flasks were starved for 24 hours in medium containing 2% FBS and then removed from the plate using a 0.05% trypsin solution and resuspended in m199 with 2% FBS. Cell suspension was seeded onto SAM arrays in sterile polystyrene Petri dishes and incubated in a humid environment at 37° C. and 5% CO2. After allowing cells to attach for ˜1 hr, arrays were dipped in warm m199 with 2% FBS to remove loosely attached cells and then transferred to a rectangular multidish (Thermo Scientific/Nunc, Rochester, N.Y.) containing warm media with 2% FBS and imaged ˜2 hours later serving as “0 hr”. […]

[5] = system: NIH 3T3 fibroblasts; test: NIH 3T3 attachment to SAM spots presenting immobilized VR-BP; format: cell-based; settings: immobilized 1% VR-BP vs scrambled peptide, 1 hour
Method: as §1

[6] = system: HUVEC; test: HUVEC survival and proliferation on SAM arrays presenting immobilized VR-BP with VEGF / SU5416; format: cell-based, human
Method: as §1

[7] = system: HUVEC; test: Endothelial tubulogenesis on SAM spots with matrigel overlay; format: cell-based, human
Method: Specifically, SAM arrays seeded overnight with 50,000 HUVECs/cm^2 were rinsed with warm media and then flipped over onto cold matrigel (Growth factor reduced matrigel, BD Biosciences, Bedford, Mass.) in a rectangular multidish well containing varied concentrations of soluble recombinant VEGF. Matrigel was allowed to gel for 5 minutes, and then the array and matrigel layer were covered with warm m199 with 2% FBS. Arrays were then placed in a TIZ Tokai Hit incubated, humidified stage at 37° C. and 5% CO2 and each array spot was imaged using phase contrast microscopy every 15 minutes for 48 hours. Image analysis was performed using NIS Elements software. The total cell area and length of individual objects were measured in each array spot at 24 hours after seeding. To measure mean length of capillary-like structures, each image was contrasted and thresholded using a standard method to isolate elongated objects for automated length measurements. All objects with a length less than 20 μm were excluded from length measurements. To measure total area occupied by cells, the images were contrasted and thresholded to isolate all cell bodies from the background for automated area measurements. Objects with a length less than 10 μm were excluded from area measurements. Tubulogenesis in each spot was quantified by normalizing the mean length of objects to total cell area in each array spot. SAM array spots were imaged using a Nikon Eclipse Ti inverted microscope with a 10×PhL objective, equipped with Nikon's Perfect Focus System. 10× images were stitched using Nikon NIS Elements software to capture entire array spots and cell counting was performed using the cell counting application in NIS Elements. Statistical analysis of all data sets was performed using a two-tailed student's t-test, where p<0.05 is used to denote statistical significance.

GRGESP [mutant peptide mixed with GRGDSP to control ligand density]
HUVEC attachment [1]: did not promote HUVEC attachment

KIPKASSVPTEL [BR-BP]
hMSC surface coverage [2]: maintained hMSC surface coverage

KLTWQELYQLKYKGI [VR-BP]
HUVEC proliferation (EdU incorporation) compared to cells without stimulation [3]: significant increases in proliferation | HUVEC attachment [4]: significantly decreased | NIH 3T3 attachment [5]: no effect | HUVEC proliferation ([6]; immobilized 1% VR-BP, in presence of soluble VEGF, high and low ligand densities): inhibited proliferation | HUVEC survival ([6]; immobilized VR-BP at 1% density, without soluble VEGF or in presence of SU5416): decreased HUVEC survival | tubulogenesis (average tubule length per total cell area) ([7]; 1% VR-BP vs 0% VR-BP, presence and absence of soluble VEGF): increased tubulogenesis | tubulogenesis ([7]; 1% VR-BP vs lower VR-BP surfaces, absence of soluble VEGF): significantly increased

VEGF
HUVEC proliferation (EdU incorporation) compared to cells without stimulation [3]: increased HUVEC proliferation | tubulogenesis (average tubule length per total cell area) ([7]; soluble VEGF protein): decreased tubulogenesis
